Results taken from patent US8173829B2, “Carbamate stereoisomer” (Sunovion Pharmaceuticals Inc., priority 2007, dated 2012).
pEC50, pKi: −log10 of the molar value.

Experiments:
[1] = target: T1, human recombinant β1 receptors (Homo sapiens, UniProt P08588); experiment: β1 radioligand binding assay; details: β1 receptor
T1 construct: expressed in transfected cells; host or cells: CHO cells
Protocol: (§1) βi and β2 Radioligand Binding Assays
(§2) The Ki is calculated from the IC50 and the known KD of the radioligand (Cheng and Prusoff's equation).

[2] = target: T2, human recombinant β2 receptors (Homo sapiens, UniProt P07550); experiment: β2 radioligand binding assay
T2 construct: expressed in transfected cells; host or cells: CHO cells
Protocol: as §1, §2

[3] = target: T3, human recombinant β2 receptors expressed in CHO cells (Homo sapiens, UniProt P07550); experiment: Intrinsic activity assessment (β2), cAMP production; type: cell-based; details: % response relative to a procaterol-induced cAMP increase
T3 construct: expressed in transfected cells; host or cells: CHO cells
Protocol: Intrinsic Activity Assessment (β2)
The intrinsic activity of a test compound is assessed by evaluating its ability to increase cAMP production from human recombinant β2 receptors expressed in CHO cells. Data are expressed as % response relative to a procaterol-induced cAMP increase.

adrenergic β1 receptors = target: T4, adrenergic β1 receptors (Cavia porcellus, UniProt H0W3H1); experiment: β1 adrenergic activity (functional), positive chronotropic effect in isolated right atria; design: species or system Dunkin Hartley Guinea pigs; details: β1 functional assay, at a concentration of 30 μM
T4 construct: from tissue; host or cells: isolated right atria of Dunkin Hartley guinea pigs

adrenergic β2 receptors = target: T5, adrenergic β2 receptors (Cavia porcellus, UniProt Q8K4Z4); experiment: β2 adrenergic activity (functional), relaxation of spontaneous tone of isolated trachea; design: species or system Dunkin Hartley Guinea pigs
T5 construct: from tissue; host or cells: isolated trachea of Dunkin Hartley guinea pigs

[4] = Stability in aqueous buffered solutions; type: physicochemical
Protocol: Stability in Aqueous Buffered Solutions
Solution Preparations: For each test compound, the following solutions are prepared. • Solution A is prepared from ˜30 mg of the test compound in 150 mL of 0.005 M citrate buffer, pH 5.0 (˜0.2 mg/mL). • Solution B is prepared as follows: approximately 30 mL aliquot of Solution A is transferred to a separated container and the pH of the solution is adjusted to pH 3.0 with 1 N HCl (˜0.2 mL). • Solution C is prepared as follows: approximately 30 mL aliquot of Solution A is transferred to a separated container and the pH of the solution is adjusted to pH ˜8.0 with 1 N NaOH (˜0.2 mL). • Note: Because the volume of 1 N HCl or 1 N NaOH used for adjusting pH was negligible, the concentration of test compound in Solutions A, B and C were the same.
Storage SCHEME • As soon as the above solutions were prepared, aliquots of each solution were transferred into 11 vials, of which 9 vials are stored at −20° C., and one each is stored at 30° C. and 40° C., respectively. • At each interval listed below, two vials are removed from −20° C. storage, and stored at 30° C. and 40° C., respectively. • The corresponding weeks under the storage condition (30° C. or 40° C.) are shown in the table below.
On Week 12, the last vial stored at −20° C. is removed and warmed up to the room temperature, which is the Day 0 Solution.
Sample Analysis: On Week 12, all solutions are assayed by an HPLC method using the Day 0 Solution at pH 5 as a standard solution. The test compounds were assayed by HPLC with UV detection (refer to Table 1 for method conditions).

T2 sequence (P07550 whole entry): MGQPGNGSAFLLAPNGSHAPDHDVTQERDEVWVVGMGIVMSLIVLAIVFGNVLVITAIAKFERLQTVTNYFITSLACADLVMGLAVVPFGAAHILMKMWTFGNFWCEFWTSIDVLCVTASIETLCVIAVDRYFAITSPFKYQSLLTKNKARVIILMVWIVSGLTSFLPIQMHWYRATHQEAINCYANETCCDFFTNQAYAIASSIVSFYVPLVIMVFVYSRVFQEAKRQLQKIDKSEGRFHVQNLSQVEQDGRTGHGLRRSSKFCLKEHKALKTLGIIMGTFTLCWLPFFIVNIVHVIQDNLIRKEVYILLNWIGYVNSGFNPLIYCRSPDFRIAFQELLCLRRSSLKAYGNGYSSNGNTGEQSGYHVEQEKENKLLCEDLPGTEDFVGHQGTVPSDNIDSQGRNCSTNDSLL
T5 sequence (Q8K4Z4 whole entry): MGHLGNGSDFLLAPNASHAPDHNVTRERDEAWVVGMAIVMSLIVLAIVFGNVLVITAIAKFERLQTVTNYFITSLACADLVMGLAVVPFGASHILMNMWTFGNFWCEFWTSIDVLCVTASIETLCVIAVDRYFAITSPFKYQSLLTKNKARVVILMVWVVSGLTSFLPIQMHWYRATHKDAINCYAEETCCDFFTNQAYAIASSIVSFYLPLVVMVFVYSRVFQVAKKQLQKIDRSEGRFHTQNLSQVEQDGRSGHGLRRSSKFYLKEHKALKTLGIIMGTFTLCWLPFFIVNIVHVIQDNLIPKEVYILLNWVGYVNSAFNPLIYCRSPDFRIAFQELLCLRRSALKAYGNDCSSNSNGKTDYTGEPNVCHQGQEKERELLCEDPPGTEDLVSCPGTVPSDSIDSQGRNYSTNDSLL
T1 sequence (P08588 whole entry): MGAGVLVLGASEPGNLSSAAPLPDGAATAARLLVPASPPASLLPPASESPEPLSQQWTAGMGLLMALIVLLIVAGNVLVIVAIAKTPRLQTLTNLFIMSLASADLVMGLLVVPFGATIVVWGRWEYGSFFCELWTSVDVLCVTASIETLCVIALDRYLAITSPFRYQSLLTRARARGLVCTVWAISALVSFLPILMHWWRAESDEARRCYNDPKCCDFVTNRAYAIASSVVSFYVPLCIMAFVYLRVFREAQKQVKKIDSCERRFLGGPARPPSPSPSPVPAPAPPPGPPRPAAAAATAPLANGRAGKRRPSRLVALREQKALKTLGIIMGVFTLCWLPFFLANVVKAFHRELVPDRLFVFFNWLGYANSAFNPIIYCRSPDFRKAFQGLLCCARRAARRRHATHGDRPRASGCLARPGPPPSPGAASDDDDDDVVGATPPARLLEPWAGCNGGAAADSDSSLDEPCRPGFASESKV
T3 sequence (P07550 whole entry): as the sequence (P07550 whole entry) above
T4 sequence (H0W3H1 1-470): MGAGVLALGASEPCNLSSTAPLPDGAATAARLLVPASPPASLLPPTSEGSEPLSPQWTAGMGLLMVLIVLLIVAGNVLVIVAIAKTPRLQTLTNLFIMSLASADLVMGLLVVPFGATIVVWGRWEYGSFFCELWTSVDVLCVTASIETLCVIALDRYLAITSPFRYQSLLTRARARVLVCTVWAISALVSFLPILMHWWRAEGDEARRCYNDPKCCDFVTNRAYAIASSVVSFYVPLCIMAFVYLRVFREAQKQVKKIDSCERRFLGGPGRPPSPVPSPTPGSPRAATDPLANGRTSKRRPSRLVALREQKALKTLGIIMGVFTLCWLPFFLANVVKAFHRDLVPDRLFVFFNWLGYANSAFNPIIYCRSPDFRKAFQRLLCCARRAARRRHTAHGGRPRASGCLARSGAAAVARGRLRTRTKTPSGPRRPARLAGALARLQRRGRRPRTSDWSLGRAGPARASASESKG

SMILES: COC(=O)Nc1cc([C@H](O)CN[C@H](C)Cc2ccc(O)cc2)ccc1O [Example 1, Carbamic acid, [2-hydroxy-5-[(1S)-1-hydroxy-2-[[(1R)-2-(4-hydroxyphenyl)-1-methylethyl]amino]ethyl]-phenyl]-, methyl ester]
- inhibition at 20 µM ([1]; at a concentration of 20 μM, read-out: inhibition of specific binding): 44%
- pKi ([1]; displacement of [125I]-cyanopidolol, CHO cells): < 5.00
- β1/β2 binding ratio ([2]; ratio of Ki β1 to Ki β2): > 10
- pKi ([2]; β2 receptor, displacement of [3H]-CGP-12177, CHO cells): 6.00
- Emax [3]: 79%
- increase in heart rate (adrenergic β1 receptors): 20%
- β1/β2 functional ratio (adrenergic β2 receptors; ratio of EC50 β1 to EC50 β2): > 484
- pEC50 (adrenergic β2 receptors; β2, isolated trachea, guinea pig): 7.21
- % of Initial Concentration (0.19847 mg/mL) in pH 5.0 ([4]; pH 3.0, 30° C., 0 wk): 98.31%
- % of Initial Concentration (0.19847 mg/mL) in pH 5.0 ([4]; pH 3.0, 30° C., 1 wk): 99.95%
- % of Initial Concentration (0.19847 mg/mL) in pH 5.0 ([4]; pH 3.0, 30° C., 2 wk): 99.12%
- % of Initial Concentration (0.19847 mg/mL) in pH 5.0 ([4]; pH 3.0, 30° C., 4 wk): 100.91%
- % of Initial Concentration (0.19847 mg/mL) in pH 5.0 ([4]; pH 3.0, 30° C., 8 wk): 101.16%
- % of Initial Concentration (0.19847 mg/mL) in pH 5.0 ([4]; pH 3.0, 30° C., 12 wk): 101.54%
- % of Initial Concentration (0.19847 mg/mL) in pH 5.0 ([4]; pH 3.0, 40° C., 0 wk): 98.31%
- % of Initial Concentration (0.19847 mg/mL) in pH 5.0 ([4]; pH 3.0, 40° C., 1 wk): 98.87%
- % of Initial Concentration (0.19847 mg/mL) in pH 5.0 ([4]; pH 3.0, 40° C., 2 wk): 100.33%
- % of Initial Concentration (0.19847 mg/mL) in pH 5.0 ([4]; pH 3.0, 40° C., 4 wk): 105.71%
- % of Initial Concentration (0.19847 mg/mL) in pH 5.0 ([4]; pH 3.0, 40° C., 8 wk): 106.72%
- % of Initial Concentration (0.19847 mg/mL) in pH 5.0 ([4]; pH 3.0, 40° C., 12 wk): 106.51%
- time for which found to be very stable ([4]; pH 3 or 5, stored at 30° C.): at least 12 weeks
- % of Initial Concentration (0.19847 mg/mL) in pH 5.0 ([4]; pH 5.0, 30° C., 0 wk): 100.20%
- % of Initial Concentration (0.19847 mg/mL) in pH 5.0 ([4]; pH 5.0, 30° C., 1 wk): 99.68%
- % of Initial Concentration (0.19847 mg/mL) in pH 5.0 ([4]; pH 5.0, 30° C., 2 wk): 101.08%
- % of Initial Concentration (0.19847 mg/mL) in pH 5.0 ([4]; pH 5.0, 30° C., 4 wk): 101.59%
- % of Initial Concentration (0.19847 mg/mL) in pH 5.0 ([4]; pH 5.0, 30° C., 8 wk): 105.28%
- % of Initial Concentration (0.19847 mg/mL) in pH 5.0 ([4]; pH 5.0, 30° C., 12 wk): 106.61%
- % of Initial Concentration (0.19847 mg/mL) in pH 5.0 ([4]; pH 5.0, 40° C., 0 wk): 100.20%
- % of Initial Concentration (0.19847 mg/mL) in pH 5.0 ([4]; pH 5.0, 40° C., 1 wk): 100.40%
- % of Initial Concentration (0.19847 mg/mL) in pH 5.0 ([4]; pH 5.0, 40° C., 2 wk): 101.07%
- % of Initial Concentration (0.19847 mg/mL) in pH 5.0 ([4]; pH 5.0, 40° C., 4 wk): 102.09%
- % of Initial Concentration (0.19847 mg/mL) in pH 5.0 ([4]; pH 5.0, 40° C., 8 wk): 104.88%
- % of Initial Concentration (0.19847 mg/mL) in pH 5.0 ([4]; pH 5.0, 40° C., 12 wk): 106.74%
- % of Initial Concentration (0.19847 mg/mL) in pH 5.0 ([4]; ~pH 8, 30° C., 0 wk): 97.78%
- % of Initial Concentration (0.19847 mg/mL) in pH 5.0 ([4]; ~pH 8, 30° C., 1 wk): 69.33%
- % of Initial Concentration (0.19847 mg/mL) in pH 5.0 ([4]; ~pH 8, 30° C., 2 wk): 50.77%
- % of Initial Concentration (0.19847 mg/mL) in pH 5.0 ([4]; ~pH 8, 30° C., 4 wk): 27.72%
- % of Initial Concentration (0.19847 mg/mL) in pH 5.0 ([4]; ~pH 8, 30° C., 8 wk): 6.96%
- % of Initial Concentration (0.19847 mg/mL) in pH 5.0 ([4]; ~pH 8, 30° C., 12 wk): 1.24%
- % of Initial Concentration (0.19847 mg/mL) in pH 5.0 ([4]; ~pH 8, 40° C., 0 wk): 97.78%
- % of Initial Concentration (0.19847 mg/mL) in pH 5.0 ([4]; ~pH 8, 40° C., 1 wk): 30.18%
- % of Initial Concentration (0.19847 mg/mL) in pH 5.0 ([4]; ~pH 8, 40° C., 2 wk): 8.85%
- % of Initial Concentration (0.19847 mg/mL) in pH 5.0 ([4]; ~pH 8, 40° C., 4 wk): 0.52%
- % of Initial Concentration (0.19847 mg/mL) in pH 5.0 ([4]; ~pH 8, 40° C., 8 wk): 0%
- % of Initial Concentration (0.19847 mg/mL) in pH 5.0 ([4]; ~pH 8, 40° C., 12 wk): 0%
